“Also recorded” adds a separate entry of the source.
Key:
[1] = test system: bovine cartilage explants; experiment: In vitro joint disease model (IL-1), explanted bovine cartilage: sGAG loss; type: cell-based; conditions: for cartilage matrix loss (% sGAG loss): 13.3 nM supplied in every medium change, IL-1, relative to Disease control; for cartilage matrix loss (% sGAG loss), 4 days versus 12 days of treatment: protein in medium day 0-4 only versus 12 days, IL-1, FIG. 7
Excerpt: (§1) Bovine cartilage explants (3 mm diameter, 1.2 mm thick) are harvested from the femoral patellar groove of 2-4 week old bovine calves. Knee joints are mounted by removing all tissue surrounding the femur, removing the femoral head with a bone saw or hack saw, and clamping in a tissue vice. Joints are aseptically opened, removing the patella, tibia and fibula. Using a 3 mm diameter disposable biopsy punch, approximately 80×3 mm diameter full thickness cartilage cores are punched from the femoral-patellar groove. A sterile knife is used to slice the cores at the cartilage-bone interface. Cores are then inserted into 3 mm diameter holes in a 1.2 mm thick sterile stainless steel plate and sliced flush with the plate using sterile razor blades to remove the excess core length, resulting in 3 mm diameter, 1.2 mm thick cartilage explants with the superficial zone cartilage intact.
(§2) Explants are cultured in 96-well plates in 300 μL of medium consisting of low glucose DMEM (1× Gibco 11885-084), Penicillin-Streptomycin (1×, Gibco 15140-122), ascorbic acid (20 μg/mL, Sigma A4403), proline (400 μM, Sigma P5607-256), non-essential amino acids (1×, Sigma M7145), and HEPES (100 mM, Gibco 15630-080). Explants from three animals (n=2-3 per animal) are used in each treatment condition for a total explant number of 8-9 per condition. Medium is changed every 2 days. On days 6 and 10, the medium is supplemented with 5 μCi/mL of ^35S-sodium sulfate (Perkin Elmer NEX041H001MC, 1 mCi).
(§3) Timepoints are taken at day 8 and 12: explant tissue is washed four times for 30 min each (2 hr total) in 1 mM unlabeled sodium sulfate in PBS. Each explant is weighed wet and frozen at −20° C. until digestion. Tissue digestion was performed with Proteinase K (Roche cat #3115879001) and each explant is digested in 1 mL 100 μg/mL Proteinase K in 50 mM Tris-HCL, 1 mM Calcium Chloride pH=8.0 buffer at 60° C. overnight. Measurement of sGAG content and DNA content is performed using standard assay methods such as those described in Hoemann, 2004, Methods in Molecular Medicine: Cartilage and Osteoarthritis. Totowa, N.J.: Humana Press Inc.; p. 127-52. ^35S-sulfate content of the digested cartilage explants was quantified by mixing 20 μL of digest with 250 μL of scintillation fluid (Perkin Elmer cat #1200-439) and counting with a WALLAC 1450 MICROBETA TRILUX scintillation counter.
(§4) Treatments were given at the following concentrations: wtIGF-1 13.3 nM=100 ng/mL (IGF-1 R&D systems 291-G1); GF-Fus1 (6x-Histidine tagged) 13.3 nM=135 ng/mL; GF-Fus2 (6x-Histidine tagged) 13.3 nM=140 ng/mL; and GF-Fus3 (6x-Histidine tagged)13.3 nM=181 ng/mL. All treatments included IL-1 and were given for either 4 days or the entire culture duration. The outcomes measured were ^35S-sulfate incorporation, DNA content, and sGAG content of plug at endpoint, and sGAG released to media for all media changes. Controls were either no treatment (Healthy) or IL-1 alone at 1 ng/mL (Disease).
(§5) FIG. 4 depicts a graph of cartilage matrix loss as measured by the cumulative percentage of total sGAG lost to the culture medium against time (days). Percentage loss is calculated by dividing the cumulative sGAG in the culture medium by the total sGAG present in the medium over the culture period plus the sGAG remaining in the explant at the end of culture. Cartilage matrix loss was reduced by each IGF fusion protein relative to the disease control at a level similar to wild-type IGF. New cartilage matrix synthesis (i.e. sulfated proteoglycan synthesis is measured by ^35S-Sulfate incorporation) during the final 48 hrs of cultures terminated at day 8 and day 12 is shown in FIGS. 5A and 5B, respectively. Cartilage matrix synthesis was increased compared to disease control by all fusion proteins (GF-Fus1, GF-Fus2, and GF-Fus3) and wild-type IGF when the fusion proteins were supplied in every medium change for the entire culture duration of 8 and 12 days (black bars). […]

[2] = test system: bovine cartilage explants; experiment: In vitro joint disease model (IL-1), explanted bovine cartilage: ^35S-sulfate incorporation; type: cell-based; conditions: for cartilage matrix synthesis (^35S-sulfate incorporation): supplied in every medium change for 8 or 12 days, IL-1, final 48 hrs, versus Disease control
Excerpt: as §1, §2, §3, §4, §5

Row | Substance | cartilage matrix loss (% sGAG loss) [1] | cartilage matrix synthesis (^35S-sulfate incorporation) [2] | cartilage matrix loss (% sGAG loss), 4 days versus 12 days of treatment [1] | cartilage matrix synthesis (^35S-sulfate incorporation) after fusion protein removal ([2]; treatment day 0-4 only, measured at day 8 and day 12, IL-1)
1 | GF-Fus5: IGF-1(LR3) fused to CNA35 CB domain | reduced | increase |  | 
2 | GF-Fus1: IGF-1 variant polypeptide Long [R^3]-IGF-1, no fused binding domain; used 6x-Histidine-tagged as control [reference compound] | reduced | increase; also recorded: stimulated cartilage matrix biosynthesis | higher sGAG loss than 12 days of treatment | 
3 | wtIGF: Wild-type IGF-1 (R&D systems 291-G1), control [reference compound] | reduced | increased |  | 
4 | GF-Fus6: IGF-1(LR3) fused to CNA344 CB domain | reduced | increase |  | 
5 | GF-Fus3: C-terminal fusion IGF-1(LR3)-PRELP heparin binding domain | reduced | increase; also recorded: stimulated cartilage matrix biosynthesis | reduced sGAG loss by an equivalent amount | highest; also recorded: increased proteoglycan biosynthesis by an equivalent amount; also recorded: largest increase

From US20170327556A1, “CARTILAGE-BINDING FUSION PROTEINS” (Merrimack Pharmaceuticals, Inc., priority 2013, published 2017)
